# System: 993429-296-R-J1-PDC complex spheroid growth, percent test/control
# Assay: Anticancer human tumor 993429-296-R-J1-PDC patient-derived uterine sarcoma cell line growth inhibition [Asc]
# Conditions: for IC50: curve of first compound; for viability, T/C: stronger effect = lower value
# How it was run: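 Complex spheroids combining tumor cells with HUVEC endothelial cells and human MSCs, at 37 degrees C, 5% CO2; agents tested alone or combined, half-log dilutions from at or near clinical Cmax, or 10 microM if Cmax unknown.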
# 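Also: spheroids exposed to compounds for seven days.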
structure (smiles),measurement,setting,value
NC(=O)C(=Cn1cnc(-c2cc(C(F)(F)F)cc(C(F)(F)F)c2)n1)c1cncnc1 + CNC(C)C(=O)NC1CN(S(=O)(=O)c2cccc(S(=O)(=O)N3CCC4CCC(C(=O)NC(c5ccccc5)c5ccccc5)N4C(=O)C(NC(=O)C(C)NC)C3)c2)CCC2CCC(C(=O)NC(c3ccccc3)c3ccccc3)N2C1=O,IC50,second compound 0.01 µM,12.8 nM
same,IC50,second compound 0.0316 µM,11.1 nM
same,IC50,second compound 0.1 µM,8.96 nM
same,IC50,second compound 0.316 µM,5.99 nM
same,IC50,second compound 1 µM,8.1 nM
same,"viability, T/C","second compound 0.01 µM, first compound 0.000949 µM",62.7%
same,"viability, T/C","second compound 0.01 µM, first compound 0.003 µM",65.6%
same,"viability, T/C","second compound 0.01 µM, first compound 0.00949 µM",55.4%
same,"viability, T/C","second compound 0.01 µM, first compound 0.03 µM",33.1%
same,"viability, T/C","second compound 0.01 µM, first compound 0.0949 µM",14.9%
same,"viability, T/C","second compound 0.01 µM, first compound 0.3 µM",8.47%
same,"viability, T/C","second compound 0.0316 µM, first compound 0.000949 µM",63.6%
same,"viability, T/C","second compound 0.0316 µM, first compound 0.003 µM",63.1%
same,"viability, T/C","second compound 0.0316 µM, first compound 0.00949 µM",52.1%
same,"viability, T/C","second compound 0.0316 µM, first compound 0.03 µM",33%
same,"viability, T/C","second compound 0.0316 µM, first compound 0.0949 µM",14.9%
same,"viability, T/C","second compound 0.0316 µM, first compound 0.3 µM",8%
same,"viability, T/C","second compound 0.1 µM, first compound 0.000949 µM",58.3%
same,"viability, T/C","second compound 0.1 µM, first compound 0.003 µM",61.1%
same,"viability, T/C","second compound 0.1 µM, first compound 0.00949 µM",48.1%
same,"viability, T/C","second compound 0.1 µM, first compound 0.03 µM",33.3%
same,"viability, T/C","second compound 0.1 µM, first compound 0.0949 µM",16%
same,"viability, T/C","second compound 0.1 µM, first compound 0.3 µM",4.45%
same,"viability, T/C","second compound 0.316 µM, first compound 0.000949 µM",57.6%
same,"viability, T/C","second compound 0.316 µM, first compound 0.003 µM",60%
same,"viability, T/C","second compound 0.316 µM, first compound 0.00949 µM",43.7%
same,"viability, T/C","second compound 0.316 µM, first compound 0.03 µM",29%
same,"viability, T/C","second compound 0.316 µM, first compound 0.0949 µM",15.8%
same,"viability, T/C","second compound 0.316 µM, first compound 0.3 µM",8.88%
same,"viability, T/C","second compound 1 µM, first compound 0.000949 µM",52%
same,"viability, T/C","second compound 1 µM, first compound 0.003 µM",62.6%
same,"viability, T/C","second compound 1 µM, first compound 0.00949 µM",47.8%
same,"viability, T/C","second compound 1 µM, first compound 0.03 µM",28.5%
same,"viability, T/C","second compound 1 µM, first compound 0.0949 µM",14.1%
same,"viability, T/C","second compound 1 µM, first compound 0.3 µM",5.77%

# — PubChem BioAssay AID1963446 (Molecular Pharmacology Branch, DTP, NCI, 2024)
